Measurements: patent US6124323A, “4-substituted piperidine analogs and their use as subtype selective NMDA receptor antagonists” (Warner-Lambert Company, priority 1998, dated 2000)
Counter-ions that a name gives are not always drawn.

Columns and labels:
[1] = target: T1, NMDA receptor subunits 1A/2A (Rattus norvegicus, UniProt P35439+Q00959); experiment: Electrophysiological assay at NMDA receptor subunits expressed in Xenopus oocytes, 1A/2A; type: cell-based; conditions: glutamate 100 μm and glycine 1-100 μm
T1 construct: expressed in transfected cells; host or cells: Xenopus laevis oocytes (cRNA injection; clones from Dr. P. H. Seeburg)
In short: (§1)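 Two-electrode voltage clamp of Xenopus oocytes injected with rat NR1A plus NR2A, 2B or 2C cRNA (1:1), recorded 3–21 days post-injection in Ringer's, pH 7.4. Currents evoked by glutamate (100 μm) with glycine (1–100 μm); antagonist applied by bath perfusion at rising concentrations, IC50 from logistic fit or linear regression for incomplete curves.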

[2] = test system: Maximal Electroshock-induced Seizures; experiment: Maximal electroshock-induced seizures (MES); type: in vivo; conditions: Mus musculus; mice; 50 mA, 60 pulses/sec, 1 sec
Text: Seizures were induced by application of current (50 mA, 60 pulses/sec, 0.8 sec pulse width, 1 sec duration, d.c.) through saline-coated corneal electrodes using a Ugo Basile ECT device (Model 7801). […] A tonic seizure was defined as a hindlimb extension in excess of 90 degrees from the plane of the body.

[3] = target: T2, NMDA receptor subunits 1A/2B (Rattus norvegicus, UniProt P35439+Q00960); experiment: Electrophysiological assay at NMDA receptor subunits expressed in Xenopus oocytes, 1A/2B; type: cell-based; conditions: Xenopus oocytes; glutamate 100 μm and glycine 1-100 μm; read-out: Subunits IC50, 1A/2B
T2 construct: expressed in transfected cells; host or cells: Xenopus laevis oocytes (cRNA injection; clones from Dr. P. H. Seeburg)
In short: as §1

[4] = target: T3, NMDA receptor subunits 1A/2C (Rattus norvegicus, UniProt P35439+Q00961); experiment: Electrophysiological assay at NMDA receptor subunits expressed in Xenopus oocytes, 1A/2C; type: cell-based; conditions: Xenopus oocytes; glutamate 100 μm and glycine 1-100 μm; read-out: Subunits IC50, 1A/2C
T3 construct: expressed in transfected cells; host or cells: Xenopus laevis oocytes (cRNA injection; clones from Dr. P. H. Seeburg)
In short: as §1

T2 sequence (Q00960 27-1482, other chains not shown): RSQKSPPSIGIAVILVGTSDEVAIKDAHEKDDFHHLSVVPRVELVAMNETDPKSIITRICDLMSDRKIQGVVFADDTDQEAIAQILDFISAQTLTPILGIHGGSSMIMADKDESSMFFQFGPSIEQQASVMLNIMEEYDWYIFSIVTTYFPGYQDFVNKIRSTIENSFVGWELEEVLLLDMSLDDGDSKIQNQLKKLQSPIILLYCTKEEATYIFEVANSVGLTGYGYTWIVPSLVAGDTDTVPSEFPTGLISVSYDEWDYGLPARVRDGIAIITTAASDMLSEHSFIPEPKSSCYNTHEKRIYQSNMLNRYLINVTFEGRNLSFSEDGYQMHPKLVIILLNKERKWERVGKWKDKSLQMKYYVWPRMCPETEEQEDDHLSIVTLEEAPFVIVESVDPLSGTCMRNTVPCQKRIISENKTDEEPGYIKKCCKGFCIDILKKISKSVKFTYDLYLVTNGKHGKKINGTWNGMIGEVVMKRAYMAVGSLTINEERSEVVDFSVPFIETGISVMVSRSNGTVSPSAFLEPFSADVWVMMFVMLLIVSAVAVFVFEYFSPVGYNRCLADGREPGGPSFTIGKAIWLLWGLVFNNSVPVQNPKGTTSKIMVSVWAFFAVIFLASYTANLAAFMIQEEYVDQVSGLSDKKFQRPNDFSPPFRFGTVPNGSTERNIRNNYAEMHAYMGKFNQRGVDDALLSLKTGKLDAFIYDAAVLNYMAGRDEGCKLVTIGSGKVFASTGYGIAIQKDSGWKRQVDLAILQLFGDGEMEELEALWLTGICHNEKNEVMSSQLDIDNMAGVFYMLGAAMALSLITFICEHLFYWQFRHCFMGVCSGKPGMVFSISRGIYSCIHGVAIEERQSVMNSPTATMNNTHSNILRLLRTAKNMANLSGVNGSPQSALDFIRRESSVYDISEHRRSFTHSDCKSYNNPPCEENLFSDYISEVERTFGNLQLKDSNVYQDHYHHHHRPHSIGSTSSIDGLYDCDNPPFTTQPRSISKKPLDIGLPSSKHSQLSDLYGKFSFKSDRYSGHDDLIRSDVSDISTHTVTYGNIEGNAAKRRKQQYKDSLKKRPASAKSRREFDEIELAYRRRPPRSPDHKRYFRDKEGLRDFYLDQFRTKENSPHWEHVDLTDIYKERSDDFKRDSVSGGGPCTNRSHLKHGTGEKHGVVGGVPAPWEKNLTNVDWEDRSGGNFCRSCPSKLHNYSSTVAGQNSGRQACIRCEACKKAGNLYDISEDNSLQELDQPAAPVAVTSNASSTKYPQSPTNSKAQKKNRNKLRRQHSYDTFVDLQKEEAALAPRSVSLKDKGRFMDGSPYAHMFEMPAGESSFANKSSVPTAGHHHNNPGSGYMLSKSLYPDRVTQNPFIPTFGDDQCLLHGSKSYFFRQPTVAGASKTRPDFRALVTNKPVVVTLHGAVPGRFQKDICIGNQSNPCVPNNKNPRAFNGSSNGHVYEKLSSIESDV
T1 sequence (Q00959 20-1464 limits assumed, other chains not shown): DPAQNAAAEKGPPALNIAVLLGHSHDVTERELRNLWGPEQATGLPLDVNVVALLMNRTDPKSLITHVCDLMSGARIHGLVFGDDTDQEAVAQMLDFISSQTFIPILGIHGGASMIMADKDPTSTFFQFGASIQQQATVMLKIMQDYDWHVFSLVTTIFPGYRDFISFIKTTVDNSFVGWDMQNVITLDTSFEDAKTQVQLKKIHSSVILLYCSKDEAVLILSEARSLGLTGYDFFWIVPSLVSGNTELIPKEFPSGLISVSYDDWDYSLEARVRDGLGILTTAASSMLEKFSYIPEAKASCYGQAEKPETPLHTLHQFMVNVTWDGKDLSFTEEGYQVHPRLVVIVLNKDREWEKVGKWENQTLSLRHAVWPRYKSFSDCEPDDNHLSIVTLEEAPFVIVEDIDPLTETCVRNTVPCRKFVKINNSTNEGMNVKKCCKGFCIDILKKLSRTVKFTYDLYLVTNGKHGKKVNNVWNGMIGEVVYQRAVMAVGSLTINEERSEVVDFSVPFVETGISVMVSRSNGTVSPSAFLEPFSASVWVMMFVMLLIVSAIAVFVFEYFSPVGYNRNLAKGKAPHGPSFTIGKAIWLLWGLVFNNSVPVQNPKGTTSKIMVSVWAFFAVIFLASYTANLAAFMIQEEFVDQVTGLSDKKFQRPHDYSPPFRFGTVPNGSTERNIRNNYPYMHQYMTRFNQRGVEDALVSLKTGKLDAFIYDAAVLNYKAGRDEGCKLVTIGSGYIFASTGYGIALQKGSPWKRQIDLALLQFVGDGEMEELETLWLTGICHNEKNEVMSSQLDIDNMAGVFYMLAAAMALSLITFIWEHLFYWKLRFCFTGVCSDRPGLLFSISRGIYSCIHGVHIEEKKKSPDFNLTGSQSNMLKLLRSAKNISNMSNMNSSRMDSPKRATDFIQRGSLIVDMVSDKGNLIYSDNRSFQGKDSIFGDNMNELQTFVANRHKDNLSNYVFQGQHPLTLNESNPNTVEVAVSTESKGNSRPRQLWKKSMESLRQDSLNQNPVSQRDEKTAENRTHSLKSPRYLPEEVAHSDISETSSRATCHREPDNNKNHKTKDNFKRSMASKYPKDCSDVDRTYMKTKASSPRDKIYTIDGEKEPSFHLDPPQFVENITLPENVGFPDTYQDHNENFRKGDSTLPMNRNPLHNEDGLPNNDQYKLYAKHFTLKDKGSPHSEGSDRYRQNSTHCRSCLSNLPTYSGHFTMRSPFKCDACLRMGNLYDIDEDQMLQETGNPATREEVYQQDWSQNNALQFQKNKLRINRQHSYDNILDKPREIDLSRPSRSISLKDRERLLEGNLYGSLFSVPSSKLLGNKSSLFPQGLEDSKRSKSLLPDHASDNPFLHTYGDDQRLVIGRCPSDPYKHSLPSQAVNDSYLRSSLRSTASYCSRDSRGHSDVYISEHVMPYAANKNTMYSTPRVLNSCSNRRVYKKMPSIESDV
T3 sequence (Q00961 20-1237, other chains not shown): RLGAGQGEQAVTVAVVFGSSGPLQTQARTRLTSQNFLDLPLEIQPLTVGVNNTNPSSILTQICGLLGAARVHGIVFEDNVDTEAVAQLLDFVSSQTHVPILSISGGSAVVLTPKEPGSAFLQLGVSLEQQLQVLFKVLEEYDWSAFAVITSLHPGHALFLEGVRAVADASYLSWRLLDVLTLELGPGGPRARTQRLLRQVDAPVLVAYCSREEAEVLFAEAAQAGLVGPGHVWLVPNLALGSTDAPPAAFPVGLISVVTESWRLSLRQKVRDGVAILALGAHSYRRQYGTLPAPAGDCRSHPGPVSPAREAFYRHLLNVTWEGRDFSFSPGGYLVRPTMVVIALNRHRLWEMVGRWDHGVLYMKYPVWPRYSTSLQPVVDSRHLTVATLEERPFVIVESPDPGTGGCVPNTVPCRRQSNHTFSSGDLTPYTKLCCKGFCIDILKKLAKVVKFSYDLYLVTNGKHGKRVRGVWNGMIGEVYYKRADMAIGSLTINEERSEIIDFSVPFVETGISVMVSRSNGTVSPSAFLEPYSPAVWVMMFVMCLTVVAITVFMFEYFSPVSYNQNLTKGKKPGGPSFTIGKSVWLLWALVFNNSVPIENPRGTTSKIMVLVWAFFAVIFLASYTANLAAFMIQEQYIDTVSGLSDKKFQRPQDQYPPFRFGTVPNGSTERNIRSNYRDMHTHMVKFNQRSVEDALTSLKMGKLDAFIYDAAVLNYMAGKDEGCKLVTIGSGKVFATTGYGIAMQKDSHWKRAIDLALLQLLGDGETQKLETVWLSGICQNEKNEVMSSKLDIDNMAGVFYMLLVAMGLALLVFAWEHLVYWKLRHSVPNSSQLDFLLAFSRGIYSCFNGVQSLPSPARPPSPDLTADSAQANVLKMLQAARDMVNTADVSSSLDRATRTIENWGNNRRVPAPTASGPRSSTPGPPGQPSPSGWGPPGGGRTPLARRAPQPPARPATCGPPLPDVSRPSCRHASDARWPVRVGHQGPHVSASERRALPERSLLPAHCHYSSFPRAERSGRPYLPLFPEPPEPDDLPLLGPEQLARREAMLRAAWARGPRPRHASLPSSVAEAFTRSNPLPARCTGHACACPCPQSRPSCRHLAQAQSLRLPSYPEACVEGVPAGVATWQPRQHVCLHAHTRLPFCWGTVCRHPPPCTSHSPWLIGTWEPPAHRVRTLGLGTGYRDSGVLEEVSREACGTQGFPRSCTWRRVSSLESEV

Structure (SMILES) | IC50 [1] [µM] | IC50 [3] [µM] | IC50 [4] [µM] | ED50 [2] [mg/kg]
OC1(Cc2ccccc2)CCN(CCOc2ccccc2)CC1 [Ex. 47, 4-Benzyl-4-hydroxy-1-(2-phenoxyethyl)piperidine hydrochloride] | 85 | 3 | > 100 | 3.2
Oc1ccc(OCCN2CCC(Cc3ccccc3F)CC2)cc1 [Ex. 128, 1-[2-(4-Hydroxyphenoxy)ethyl]-4-(2-fluorobenzyl)piperidine hydrochloride] | 110 | 0.04 | > 300 | 1
COc1ccc(C2CCN(CCCCc3ccccc3)CC2)cc1 [Ex. 166, 4-(4-Methoxyphenyl)-1-(4-phenylbutyl)piperidine] | 270 | 170 | > 300 | 0.7
O=c1[nH]c2cc(OCCN3CCC(Cc4ccccc4)CC3)ccc2o1 [Ex. 181, 4-Benzyl-1-(2-(2-oxobenzoxazol-5-oxy)ethyl)piperidine] | 110 | 1 | 140 | 6
Oc1ccc(OCCN2CCC(Cc3ccc(C(F)(F)F)cc3)CC2)cc1 [Ex. 129, 1-[2-(4-Hydroxyphenoxy)ethyl]-4-(4-trifluorobenzyl)piperidine hydrochloride] | 170 | 0.05 | 170 | 2
Fc1ccc(OCCN2CCC(Cc3ccccc3)CC2)cc1 [Ex. 103, 4-Benzyl-1-(2-(4-fluorophenoxy)ethyl)piperidine hydrochloride] | 95 | 1 | > 300 | 3
Clc1ccc(NC2CCN(CCCOc3ccccc3)CC2)cc1 [Ex. 40, 4-(N-(4-Chloroanilino)-1-(3-phenoxypropyl)piperidine hydrobromide] | 80 | 3 | 100 | 2.5
Cc1ccc(CC2CCN(CCOc3ccc(F)cc3)CC2)c(F)c1 [Ex. 133, 4-(2-Fluoro-4-methylbenzyl)-1-(2-(4-fluorophenoxy)ethyl)piperidine hydrochloride] | 80 | 0.21 | 150 | 2.5
Cc1ccc(CC2CCN(CCOc3ccc(F)cc3)CC2)cc1 [Ex. 116, 1-(2-(4-Fluorophenoxy)ethyl)-4-(4-methylbenzyl)piperidine hydrochloride] | 70 | 4.5 | 150 | 3
O=c1[nH]c2ccc(OCCN3CCC(Cc4ccccc4)CC3)cc2[nH]1 [Ex. 59, 4-Benzyl-1-[2-(2-oxobenzimidazol-5-oxy)ethyl]piperidine] | 75 | 0.024 | > 100 | 1
Fc1cccc(OCCCN2CCC(Cc3ccccc3)CC2)c1 [Ex. 22, 4-Benzyl-1-(3-(3-fluorophenoxy)propyl)piperidine hydrobromide] | 90 | 0.9 | > 100 | 4
Cc1ccc(CC2CCN(CCOc3ccc(Cl)cc3)CC2)cc1.Cl [Ex. 168, 1-(2-(4-Chlorophenoxy)ethyl)-4-(4-methylbenzyl)piperidine hydrochloride] | > 300 | 9.5 | > 300 | 4

Now those with a lower IC50 [1], led by results:

IC50 [1] [µM] | IC50 [3] [µM] | IC50 [4] [µM] | Structure (SMILES) | ED50 [2] [mg/kg]
23 | 0.16 | 230 | CC(C)(C)c1ccc(CC2CCN(CCOc3ccc(O)cc3)CC2)cc1 [Ex. 132, 1-[2-(4-Hydroxyphenoxy)ethyl]-4-(4-t-butylbenzyl)piperidine hydrochloride] | 1
50 | 0.07 | > 300 | Oc1ccc(OCCN2CCC(O)(Cc3ccc(F)cc3)CC2)cc1 [Ex. 123, 1-[2-(4-Hydroxyphenoxy)ethyl]-4-(4-fluorobenzyl)-4-hydroxy-piperidine hydrochloride] | 3
60 | 0.03 | 140 | Cc1ccc(CC2CCN(CCOc3ccc(O)cc3)CC2)c(F)c1 [Ex. 134, 4-(2-Fluoro-4-methylbenzyl)-1-(2-(4-hydroxyphenoxy)ethyl)piperidine hydrochloride] | 1.5
35 | 2.8 | > 100 | OC(COc1cccc2ccccc12)CN1CCC(Cc2ccccc2)CC1 (centres unmarked) [Ex. 3, 4-Benzyl-1-[2-hydroxy-3-(1-naphthyloxy)propyl]piperidine] | 2
40 | 0.1 | 210 | Cc1ccc(CC2CCN(CCOc3ccc(O)c(C)c3)CC2)c(F)c1 [Ex. 147, 1-[2-(4-Hydroxy-3-methylphenoxy)ethyl]-4-(2-fluoro-4-methylbenzyl)piperidine hydrochloride] | 3
50 | 0.11 | > 100 | O=c1[nH]c2cccc(OCCN3CCC(Cc4ccccc4)CC3)c2[nH]1 [Ex. 55, 4-Benzyl-1-[2-(2-oxobenzimidazol-4-oxy)ethyl]piperidine] | 6
48 | 0.02 | 70 | Fc1ccc(CC2CCN(CCOc3ccc4[nH]c(=S)[nH]c4c3)CC2)cc1 [Ex. 175, 4-(4-Fluorobenzyl)-1-(2-(2-thioxobenzimidazol-5-oxy)ethyl)piperidine] | 8
34 | 0.9 | 60 | Fc1cccc(OCCCN2CCC(Cc3ccc(Cl)cc3)CC2)c1 [Ex. 31, 4-(4-Chlorobenzyl)-1-(3-(3-fluorophenoxy)propyl)piperidine hydrobromide] | 7.5
35 | 0.03 | 45 | Cc1ccc(CC2CCN(CCOc3ccc4[nH]c(=S)[nH]c4c3)CC2)cc1 [Ex. 174, 4-(4-Methylbenzyl)-1-(2-(2-thioxobenzimidazol-5-oxy)ethyl)piperidine] | 5
50 | 0.8 | 100 | Clc1ccc(CC2CCN(CCCOc3ccccc3)CC2)cc1 [Ex. 30, 4-(4-Chlorobenzyl)-1-(3-phenoxypropyl)piperidine hydrobromide] | 6
62 | 0.04 | 230 | O=c1[nH]c2ccc(OCCCN3CCC(Cc4ccccc4)CC3)cc2[nH]1 [Ex. 170, 4-Benzyl-1-[3-(2-oxobenzimidazol-5-oxy)propyl]piperidine] | 10
25 | 0.1 | > 100 | O=c1[nH]c2ccc(OCCN3CCC(Cc4ccccc4)CC3)cc2[nH]c1=O [Ex. 58, 4-Benzyl-1-[2-(2,3-dioxoquinoxalin-6-oxy)ethyl]piperidine] | 5.1
30 | 8 | 100 | O=[N+]([O-])c1ccccc1OCCN1CCC(Cc2ccc(Cl)cc2)CC1 [Ex. 73, 4-(4-Chlorobenzyl)-1-[2-(2-nitrophenoxy)ethyl]piperidine] | 8
55 | 0.18 | 280 | Oc1ccc(OCCN2CCC(Cc3ccc(F)c(F)c3)CC2)cc1 [Ex. 122, 1-[2-(4-Hydroxyphenoxy)ethyl]-4-(3,4-difluorobenzyl)piperidine hydrochloride] | 5
